# Measurements published in US6444787B1, “Method of isolating a peptide which immunologically mimics microbial carbohydrates including group B streptococcal carbohydrates and the use thereof in a vaccine” (Research Development Institute, Inc., priority 1997, dated 2002).
# Ends that are not written are not given here.
# Test system: anti-GBS antibodies
# Assay: ELISA, binding of antibodies to synthetic peptide
# Parameters: species or system murine
# Details: peptide coated at 10 μg/ml; FIG. 1 panel A
# Procedure: Microtiter wells were coated with peptide at 10 μg/ml and then blocked with 1% BSA. Test antibodies were added to the wells, incubated and washed. Antibody binding was detected with alkaline phosphatase conjugated anti-Ig and then substrate. The values are A405, mean of duplicate or triplicate samples. […] The binding of all antibodies to BSA was<0.1.
# Capsular polysaccharide was coated directly onto microtiter wells.
sequence,measurement,value
FDTGAFDPDWPAC,Binding of monoclonal antibodies S7 and S9 to peptide,seen only with antibody S9
